Experimental data reported in US20130266636A1, “METHODS FOR BLOCKING CELL PROLIFERATION AND TREATING DISEASES AND CONDITIONS RESPONSIVE TO CELL GROWTH INHIBITION” (THE REGENTS OF THE UNIVERSITY OF CALIFORNIA, priority 2010, published 2013).
Entries after “also recorded” stand apart in the source; their conditions may differ.

Assays:
[1] = bFGF- or VEGF-stimulated endothelial cells; cited from earlier work
c-Kit = c-Kit (Homo sapiens, UniProt P10721); conditions: cited from earlier work
[2] = system: human breast (MDA-MB-231) carcinoma cell line; assay: Cell viability assay in MDA-MB-231 cells; type: cell-based
[3] = system: human lung (A549) carcinoma cell line; assay: Cell viability assay in A549 cells; type: cell-based
CRAF = CRAF (Homo sapiens, UniProt P04049); assay: CRAF localization to the mitotic spindle, confocal microscopy of XPA-1 cells; type: cell-based; parameters: total CRAF and total MEK of lysates from XPA-1 cells treated with PD0325901, Sorafenib, L-779450, PLX4720, KG5 or KG1; endogenous in cells; host or cells: XPA-1
Source text: FIG. 35. […] Data are representative of three independent experiments. FIG. 35 (b) Confocal microscopy images of human pancreatic XPA-1 and glioblastoma U251 cells during mitosis, stained for phospho-5338 CRAF (in green), α-tubulin (in red) and DNA (TOPRO-3™ in blue). Scale bar, 10 μm. White arrows indicate localization of phospho-S338 CRAF at the mitotic spindle. FIG. 35 (c) Immunoblot analysis of γ-tubulin immunoprecipitates from human colon carcinoma HCT-116 cells asynchronized and synchronized at pro-metaphase. Data are representative of three independent experiments. FIG. 35(d) Immunohistochemical staining of phospho-S338 CRAF in tumor biopsies from breast cancer patients. Scale bar, 10 μm. FIG. 35(e) Confocal microscopy images of XPA-1 cells treated with KG5, sorafenib, ZM336372, L779450 or paclitaxel and stained for CRAF (in green), γ-tubulin (in red) and DNA (TOPRO-3™ in blue). Scale bar, 10 μm. White arrows indicate localization of CRAF at the spindle pole. White circle indicates the absence of CRAF at the spindle pole.
Cells attached to cover-slips were fixed with cold methanol and permeabilized in PBS containing 0.1% triton for two minutes and blocked for 60 minutes, at room temperature with 2% BSA in PBS. Cells were stained with antibodies to CRAF (Abcam), phospho-serine 338 CRAF (SantaCruz), phospho-serine 338 CRAF (Thermo Scientific), a tubulin (Calbiochem), γ tubulin (Abcam), laminB (SantaCruz), Plk1 (Abcam), phospho-T210 Plk1 (Abcam), or phospho-T288 Aurora A (cell signaling). All primary antibodies were used at 1:100 dilution, for two hours at room temperature. After washing several times with PBS, cells were stained for two hours at room temperature, with secondary antibody specific for mouse, rabbit or goat (Invitrogen), as appropriate, diluted 1:300 and co-incubated with the DNA dye TOPRO-3™ (1:500) (Invitrogen). Samples were mounted in VECTASHIELD™ hard-set mounting media (Vector Laboratories) and imaged on a Nikon ECLIPSE C1™ confocal microscope with a 1.4 NA 60× oil-immersion lens, using minimum pinhole (30 μm). Images were captured using EZ-C1-3.50 imaging software.

HCT-116 cells = assay: G2/M arrest in HCT-116 cells expressing WT or S338D CRAF; type: cell-based, human; conditions: 1 μM KG5, 18 hours
PDGFR = conditions: cited from earlier work
NCI-60 panel = NCI-60 panel growth inhibition, overall; type: cell-based, human
Source text: FIG. 8 illustrates […] panel showing the half maximal growth inhibitory concentration of KG5 in […] human cancer cell lines.
Table 1 summarizes KG5's effect in 60 NCI cancer cell lines: the NCI-60 panel showing the half maximal growth inhibitory concentration of KG5 and the RAS and BRAF status in 60 human cancer cell lines.

[4] = molecular target: T1, phospho-S338 c-RAF (CRAF) (Homo sapiens, UniProt P04049); assay: Phospho-S338 CRAF staining in orthotopic MDA-MB-231 breast cancer tissues; type: in vivo, mice; conditions: systemic KG5 50 mg/kg i.p. bid, 3 days
T1 construct: immunofluorescent staining of phospho-S338 c-RAF (CRAF) in orthotopic breast cancer tissues untreated or systemically treated with KG5; from tissue; host or cells: orthotopic MDA-MB-231 tumours in nude mice
Experimental: FIG. 4 illustrates the effect of KG5 on orthotopic MDA-MB-231 breast cancer cells after three days, as further discussed in Example 1, below.
FIG. 4 illustrates an immunofluorescent staining of phospho-S338 c-RAF (CRAF) in orthotopic breast cancer tissues untreated or systemically treated with KG5 for 3 days.
Tumors were generated by injection of MDA-MB-231 human breast carcinoma cells (2×10^6 tumor cells in 50 μl of sterile PBS) into the mammary fatpad of 6-8 week old female nude mice. Tumors were established for 2 weeks before beginning dosing. Mice were dosed with vehicle (10% HS-15) or 50 mg/kg KG5 (i.p. bid) for 3 days prior to harvest. All research was conducted under protocols approved by the UCSD animal subjects committee and in accordance with the guidelines set forth in the NIH Guide for the Care and Use of Laboratory Animals.
Immunostaining was performed according to the manufacturer's recommendations (Vector Labs), on […] sections of paraffin-embedded tumors from the orthotopic xenograft breast and brain cancer mouse models, the subcutaneous tumor mouse model or from human patients diagnosed with breast or brain cancer (as approved by the Institutional Review Board at University of California, San Diego). Antigen retrieval was performed in citrate buffer pH 6.0 at 95° C. for 20 min. […]

CRAF, sequence (P04049 whole entry): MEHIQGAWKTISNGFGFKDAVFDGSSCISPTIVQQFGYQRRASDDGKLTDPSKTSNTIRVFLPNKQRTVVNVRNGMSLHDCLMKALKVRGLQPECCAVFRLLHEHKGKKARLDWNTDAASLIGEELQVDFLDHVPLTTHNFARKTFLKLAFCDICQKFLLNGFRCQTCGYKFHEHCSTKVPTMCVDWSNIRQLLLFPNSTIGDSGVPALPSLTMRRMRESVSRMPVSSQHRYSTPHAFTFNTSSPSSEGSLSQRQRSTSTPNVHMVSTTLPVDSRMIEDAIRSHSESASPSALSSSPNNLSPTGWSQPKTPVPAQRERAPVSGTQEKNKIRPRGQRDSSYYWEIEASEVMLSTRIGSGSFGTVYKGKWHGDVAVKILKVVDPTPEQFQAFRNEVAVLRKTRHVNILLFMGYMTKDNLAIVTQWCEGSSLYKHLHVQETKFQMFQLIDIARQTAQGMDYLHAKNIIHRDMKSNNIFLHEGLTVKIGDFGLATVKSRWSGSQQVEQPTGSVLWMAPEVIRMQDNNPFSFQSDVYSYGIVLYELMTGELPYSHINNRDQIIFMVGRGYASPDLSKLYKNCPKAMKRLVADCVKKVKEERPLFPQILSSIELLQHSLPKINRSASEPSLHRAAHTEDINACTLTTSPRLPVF
T1 sequence (P04049 whole entry): as above
c-Kit, sequence (P10721 26-976): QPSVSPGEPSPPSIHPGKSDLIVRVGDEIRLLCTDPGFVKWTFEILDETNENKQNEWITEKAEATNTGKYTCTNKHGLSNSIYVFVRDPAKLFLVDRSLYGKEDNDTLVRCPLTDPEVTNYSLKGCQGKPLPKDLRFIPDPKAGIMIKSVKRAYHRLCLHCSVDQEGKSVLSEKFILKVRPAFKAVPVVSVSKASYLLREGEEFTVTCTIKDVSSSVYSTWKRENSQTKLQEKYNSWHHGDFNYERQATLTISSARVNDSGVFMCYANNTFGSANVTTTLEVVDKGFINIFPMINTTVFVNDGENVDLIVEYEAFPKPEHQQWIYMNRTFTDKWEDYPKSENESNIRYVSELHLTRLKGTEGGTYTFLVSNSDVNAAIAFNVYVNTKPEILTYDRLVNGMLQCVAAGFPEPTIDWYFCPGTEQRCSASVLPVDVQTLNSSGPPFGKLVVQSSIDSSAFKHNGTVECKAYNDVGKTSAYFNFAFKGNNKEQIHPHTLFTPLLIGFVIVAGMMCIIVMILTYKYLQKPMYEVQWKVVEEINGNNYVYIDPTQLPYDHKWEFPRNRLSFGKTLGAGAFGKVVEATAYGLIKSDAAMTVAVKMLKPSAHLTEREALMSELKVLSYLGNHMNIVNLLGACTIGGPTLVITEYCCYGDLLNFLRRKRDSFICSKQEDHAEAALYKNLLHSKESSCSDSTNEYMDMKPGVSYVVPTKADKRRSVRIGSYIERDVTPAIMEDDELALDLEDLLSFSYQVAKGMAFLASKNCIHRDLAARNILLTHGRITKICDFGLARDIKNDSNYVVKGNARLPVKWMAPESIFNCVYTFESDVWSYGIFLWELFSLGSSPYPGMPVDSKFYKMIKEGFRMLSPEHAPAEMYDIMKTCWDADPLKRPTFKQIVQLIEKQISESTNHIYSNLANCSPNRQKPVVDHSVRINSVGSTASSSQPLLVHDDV

Compound: CSc1nc(N)cc(Oc2ccc(-c3nnc(Nc4cccc(C(F)(F)F)c4)[nH]3)cc2)n1 [KG5]
- p-Aid [1]: did not suppress
- inhibition of c-Kit (c-Kit): inhibits
- cell viability ([2]; MDA-MB-231): decrease cell viability
- EC50 ([2]; MDA-MB-231 breast cancer cell viability assays): approach picomolar (pM) EC50s
- cell viability ([3]; A549): decrease cell viability
- EC50 ([3]; A549 lung cancer cells): approach picomolar (pM) EC50s
- CRAF localization to the mitotic spindle (CRAF): prevents CRAF recruitment to the mitotic spindle; also recorded: prevented this localization
- prevents phospho-S338 CRAF recruitment to the mitotic spindle (CRAF): prevents phospho-S338 CRAF recruitment to the mitotic spindle
- G2/M arrest in cells expressing phospho-mimetic S338D CRAF (HCT-116 cells): showed resistance to KG5
- inhibition of PDGFR (PDGFR): inhibits
- growth inhibitory activity against the NCI-60 panel (NCI-60 panel): inhibits the growth of several human cancer cell lines; also recorded: broad growth inhibitory activity
- phospho-S338 CRAF in orthotopic breast cancer tissues [4]: qualitative decrease in phospho-5338 RAF
- phospho-S338 CRAF in orthotopic breast cancer tissues ([4]; 50 mg/kg): inhibits serine 338 phosphorylation of CRAF
